Reference: patent US20140179786A1, “Treatment of Alzheimer's Disease Using Tolfenamic Acid” (Board of Governors for Higher Education, State of Rhode …, priority 2012, published 2014)

Columns and labels:
tau gene = assay: tau mRNA expression in mouse cortex by real time PCR; assay type: in vivo, mice; details: 0, 5 and 50 mg/kg/day for 34 days; vs control; dose of the value not stated
Experimental: (§1) It has been discovered that tolfenamic acid lowers the levels of the transcription factor Sp1, and consequently reduce the levels of an Sp1 target gene, APP, along with its pathogenic cleavage product Aβ. […] Therefore, in the study design 0, 5 and 50 mg/kg/day tolfenamic acid was administered for 34 days. […] Total mRNA levels were analyzed by real time PCR with β-actin as endogenous control. Protein expression was measured by Western blot analysis and quantified as a ratio to the house keeping protein β-actin (antibodies: T9450, Sigma-Aldrich, MO; 4970, Cell Signaling, MA). […] Values shown are the mean ±SEM.

tau protein = assay: total tau protein levels in mouse cortex by Western blot; assay type: in vivo, mice; details: 0, 5 and 50 mg/kg/day for 34 days; vs control; p<0.05; dose of the value not stated
Experimental: as §1

CDK5 [1] = assay: CDK5 gene expression in the cerebral cortex; assay type: in vivo, mice; details: daily administration for a month; 5 and 50 mg/kg groups vs control, p<0.05
Experimental: (§2) Since Sp1 also regulates CDK5 activators, the effects of tolfenamic acid on CDK5 were also tested. […] 3A (using one-way ANOVA F(2,13)=59.647, p=2.8×10^−7 Tukey-Kramer post-test p<0.05 for the C vs the 5 mg/kg group and for the C vs the 50 mg/kg group). […] When comparing the 50 mg/kg dose group to the control however, by Tukey-Kramer test, the 40% lowering in CDK5 from control was statistically significant (p<0.05).

CDK5 [2] = assay: CDK5 protein levels after tolfenamic acid treatment; assay type: in vivo, mice
Experimental: as §2

[3] = system: tau phosphorylated at Ser 235; assay: P-tau at Ser 235 by Western blotting; assay type: in vivo, mice; details: 5 and 50 mg/kg groups vs control, p<0.05
Experimental: (§3) As phosphorylation of tau affects its function and its ability to bind to microtubules, it was important to test how phosphorylated tau is affected by the treatment. P-tau levels were analyzed by Western blotting using specific antibodies. P-tau at Ser 235 (as shown in FIG. 4A) and P-tau at Thr 181 (as shown in FIG. 4B) were lowered by both doses of tolfenamic acid as shown in FIGS. 4A and 4B. Tau phosphorylated at Ser 235 was lowered by about 15% as indicated by one-way ANOVA (F(2,11)=6.105, p=0.0165), Tukey-Kramer post-test p<0.05 for the C vs the 5 mg/kg group and for the C vs the 50 mg/kg group. P-tau at Thr 181 was lowered by about 30%, one-way ANOVA F(2,10)=7.272, p=0.0112, Tukey-Kramer post-test p<0.05 for the C vs the 5 mg/kg group and for the C vs the 50 mg/kg group.

[4] = system: tau phosphorylated at Thr 181; assay: P-tau at Thr 181 by Western blotting; assay type: in vivo, mice; details: 5 and 50 mg/kg groups vs control, p<0.05
Experimental: as §3

[5] = system: homozygous APP YAC transgenic mice, line R1.40; assay: Morris water maze, learning and long-term memory; assay type: in vivo
Experimental: In order to examine the ability of tolfenamic acid to improve the learning and memory deficits in AD transgenic mice model, male and female homozygous APP YAC transgenic, line R1.40, and wild type C57BL/6 mice aging between 20-24 months were used. Four groups of similar age and gender variation were administered vehicle or tolfenamic acid daily via oral gavages for 34 days; one transgenic group was administered 5 mg/kg/day tolfenamic acid in corn oil (n=7); the second transgenic group was administered 50 mg/kg/day tolfenamic acid in corn oil (n=7), the third transgenic group was administered corn oil, the vehicle, and the last group which consisted of wild type C57BL/6 mice was administered vehicle (n=8). After 14 days of daily dosing, mice were tested in Morris water maze. In this task, the mice had to locate the hidden platform by learning multiple spatial relationships between the platform and the distal extra-maze cues. On the first day, mice received a habituation trial in which they were allowed to swim freely for 60 seconds. On the following day and for a total of 8 days, mice received training sessions of 3 trials daily. The starting position for each trial was randomly assigned between the four possible positions while the platform position was fixed in each trial. Each animal was allowed to swim until they find the immersed hidden platform or for a maximum of 60 seconds. […]

[6] = system: homozygous APP YAC transgenic mice, line R1.40; assay: Y-maze spontaneous alternation, working memory; assay type: in vivo; details: day 33
Experimental: In order to examine the ability of tolfenamic acid to improve the learning and memory deficits in AD transgenic mice model, male and female homozygous APP YAC transgenic, line R1.40, and wild type C57BL/6 mice aging between 20-24 months were used. Four groups of similar age and gender variation were administered vehicle or tolfenamic acid daily via oral gavages for 34 days; one transgenic group was administered 5 mg/kg/day tolfenamic acid in corn oil (n=7); the second transgenic group was administered 50 mg/kg/day tolfenamic acid in corn oil (n=7), the third transgenic group was administered corn oil, the vehicle, and the last group which consisted of wild type C57BL/6 mice was administered vehicle (n=8). Upon conducting the 8 acquisition sessions, probe trials on Day 1 and Day 11 following the last day of training were performed to assess the long-term memory retention by studying the preference of the mice to the correct quadrant that contained the hidden platform. On day 33, mice were tested for spontaneous alternation in Y-maze, defined as the percentage of the number of arm entries different from the previous two entries divided by the total arm entries minus two. Finally, on Day 35, mice were euthanized and brain tissue was removed and stored at −80° C.

Cc1c(Cl)cccc1Nc1ccccc1C(=O)O [tolfenamic acid]
lowering of tau mRNA expression (tau gene): 48%
reduction of total tau protein levels (tau protein): 46%
lowering of CDK5 gene expression in the cerebral cortex (CDK5 [1]): about 50%
lowering in CDK5 levels from control (CDK5 [2]; 50 mg/kg dose group vs control, Tukey-Kramer p<0.05): 40%
CDK5 levels, lowering trend by one-way ANOVA (CDK5 [2]; all dose groups, one-way ANOVA F(2,8)=4.086, p=0.059): not significant
lowering of tau phosphorylated at Ser 235 [3]: about 15%
lowering of P-tau at Thr 181 [4]: about 30%
% time spent in the target quadrant, probe trials (long-term memory retention) ([5]; 5 and 50 mg/kg/day, Day 1 and 11 following the 8 daily training sessions): significant increase
spatial learning profile (escape latency) in daily trials ([5]; both doses (5 and 50 mg/kg/day), oral gavage, transgenic mice 20-24 months): improved
improvement in the behavioral profile (spontaneous alternation, Y-maze) ([6]; 5 mg/kg/day): did not reach significance
increase in the spontaneous alternation ratio in Y-maze ([6]; 50 mg/kg/day): significant
